{
  "source": "patent US4562151A",
  "about": "“Stabilization of L-phenylalanine ammonia-lyase enzyme” (Monsanto Company, priority 1983, dated 1985)",
  "key": {"[1]": {"test_system": "L-phenylalanine ammonia-lyase", "assay": "Relative effect of polyhydric alcohols on PAL activity, 19 hour incubation (Table III)", "assay_type": "biochemical, R. glutinis", "conditions": "for PAL Enzyme Activity: 240 mM cinnamate, 6.0 M ammonia, pH 11.5, 37° C., cells about 90 mg/ml, 19 hour incubation, control without alcohol 28; for Stabilizing effect on L-phenylalanine ammonia-lyase: monohydric and dihydric alcohols, concentration not given", "protocol": "The reaction mixture consisted of 6.0 M ammonia, 240 mM cinnamate, R. glutinis cells and the above described polyhydric alcohol at pH 11.5 and 37° C. The final concentration of R. glutinis cells was approximately 90 mg/ml (wet weight). L-phenylalanine formation was determinted by high pressure liquid chromatography following a 19 hour incubation period."}, "[2]": {"test_system": "L-phenylalanine ammonia-lyase enzyme", "assay": "24 hour time course of L-phenylalanine formation with and without glycerol (Figure)", "assay_type": "biochemical, R. glutinis", "conditions": "2.0 M glycerol, 200 mM cinnamate, 6.0 M ammonia, pH 11.5, 37° C., cells about 90 mg/ml", "protocol": "Further experiments have shown that polyhydric alcohols, such as glycerol, have a substantial effect on the short-term activity of the L-phenylalanine ammonia-lyase enzyme in addition to a stabilizing effect on the long-term activity of the enzyme. The relative rates of L-phenylalanine formation from trans-cinnamate for a twenty-four hour period in the presence and absence of glycerol are plotted in the graph shown in the Figure. The reaction mixture consisted of 200 mM cinnamate, 6.0 M ammonia, 2.0 M glycerol and R. glutinis cells at pH 11.5 and 37° C. The final concentration of R. glutinis cells was approximately 90 mg/ml(wet weight). L-phenylalanine formation was determined by high pressure liquid chromatography. The amount of L-phenylalanine formed in twenty-four hours in the absence of glycerol was taken as 100."}, "[3]": {"test_system": "L-phenylalanine ammonia-lyase enzyme", "assay": "Effect of cinnamate concentration on PAL activity, R. glutinis cells, with or without glycerol (Table I)", "assay_type": "biochemical, Rhodotorula glutinis", "conditions": "for PAL Activity with glycerol: glycerol 2.3 M, ammonia 6.8 M, pH 11.2, 37° C., activity at 46.1 mM cinnamate taken as 100", "from_the_text": "For conciseness, the following explanation and examples of the present invention are described with respect to L-phenylalanine ammonia-lyase enzyme from Rhodotorula glutinis cells (ATCC 15385) known to catalyze the reversible reaction between trans-cinnamate and an ammonia donor to form L-phenylalanine. To facilitate transport of substrate and product across the cell membrane about 3 to 5 microliters of polyethyleneglycol-p-isooctylphenylether per gram wet weight of cells is preferably added to the microbial cell suspension. It should be understood that the addition of polyethylene glycol-p-isooctylphenylether or other detergents which increase the permeability of cell membranes is not necessary for practice of the present invention.\nThe effects of increasing cinnamate concentrations on the reactivity of L-phenylalanine ammonia-lyase enzyme with and without the addition of glycerol are shown in Table I.\n^(1) glycerol concentration = 2.3 M, ammonia concentration = 6.8 M; p\nof the reaction mixture = 11.2; temperature = 37° C.; concentratio\nof R. glutinis cells = 90 mg/ml. Enzyme activity at 46.1 mM cinnamate was\n^(2) ammonia concentration = 6.8 M; pH of the reaction mixture = 11.2\ntemperature = 37° C.; concentration of R. glutinis cells = 90\nmg/ml. Enzyme activity at 60.0 mM cinnamate was taken as 100."}},
  "data": [
    {"smiles": "OC[C@@H](O)[C@@H](O)[C@H](O)[C@H](O)CO", "note": "[D-mannitol]", "values": [
      {"measurement": "PAL Enzyme Activity", "setting": "[1]; alcohol 0.43 M", "result": 29}
    ]},
    {"smiles": "OC[C@@H](O)[C@@H](O)[C@H](O)[C@@H](O)CO", "note": "[D-sorbitol]", "values": [
      {"measurement": "PAL Enzyme Activity", "setting": "[1]; alcohol 0.43 M", "result": 74}
    ]},
    {"smiles": "CCCCO", "note": "[butanol]", "values": [
      {"measurement": "Stabilizing effect on L-phenylalanine ammonia-lyase", "setting": "[1]", "result": "found not to generate the stabilizing effect"}
    ]},
    {"smiles": "CCO", "note": "[ethanol]", "values": [
      {"measurement": "Stabilizing effect on L-phenylalanine ammonia-lyase", "setting": "[1]", "result": "found not to generate the stabilizing effect"}
    ]},
    {"smiles": "OCCO", "note": "[ethylene glycol]", "values": [
      {"measurement": "Stabilizing effect on L-phenylalanine ammonia-lyase", "setting": "[1]", "result": "found not to generate the stabilizing effect"}
    ]},
    {"smiles": "OCC(O)CO", "note": "[glycerol]", "values": [
      {"measurement": "PAL Enzyme Activity", "setting": "[1]; alcohol 0.72 M", "result": 100},
      {"measurement": "Instantaneous rate of reaction (initial slope of curve) versus control without glycerol", "setting": "[2]", "result": "higher instantaneous rate of reaction"},
      {"measurement": "L-phenylalanine formed during the 12 to 24 hr period (long term stabilizing effect)", "setting": "[2]; without glycerol enzyme essentially inactivated after 12 hours", "result": "substantial amount of L-phenylalanine formed during the 12 to 24 hr period"},
      {"measurement": "PAL Activity with glycerol", "setting": "[3]; 46.1 mM cinnamate, R. glutinis cells 90 mg/ml", "result": 100},
      {"measurement": "PAL Activity with glycerol", "setting": "[3]; 140.0 mM cinnamate, cells 90 mg/ml", "result": 100},
      {"measurement": "PAL Activity with glycerol", "setting": "[3]; 185.0 mM cinnamate, cells 90 mg/ml", "result": 75},
      {"measurement": "PAL Activity with glycerol", "setting": "[3]; 250.0 mM cinnamate, cells 90 mg/ml", "result": 59},
      {"measurement": "Activity of L-phenylalanine ammonia-lyase at 250 mM cinnamate relative to that measured at 50 mM", "setting": "[3]; 250 mM versus 50 mM cinnamate, in presence of glycerol", "result": "about 60%"}
    ]},
    {"smiles": "CO", "note": "[methanol]", "values": [
      {"measurement": "Stabilizing effect on L-phenylalanine ammonia-lyase", "setting": "[1]", "result": "found not to generate the stabilizing effect"}
    ]}
  ]
}
